Data set [1] has as its target T1, acetylcholinesterase from human red blood cells (Homo sapiens, UniProt P22303).
T1 construct: purchased Sigma Chemical; host or cells: human erythrocyte
The experiment in a line: Inhibition of acetylcholinesterase from human erythrocyte (Ellman colorimetric method). In kind it is biochemical. To be noted: for Activity against human red blood cells acetylcholinesterase (in words): Table 2 results. In general terms: DTNB colorimetry detects thiols as they appear.

For data set [2], the target named is T2, acetylcholinesterase from electric eel (Electrophorus electricus, UniProt O42275).
T2 construct: purchased Sigma Chemical; host or cells: electric eel
T2 sequence (O42275 24-633): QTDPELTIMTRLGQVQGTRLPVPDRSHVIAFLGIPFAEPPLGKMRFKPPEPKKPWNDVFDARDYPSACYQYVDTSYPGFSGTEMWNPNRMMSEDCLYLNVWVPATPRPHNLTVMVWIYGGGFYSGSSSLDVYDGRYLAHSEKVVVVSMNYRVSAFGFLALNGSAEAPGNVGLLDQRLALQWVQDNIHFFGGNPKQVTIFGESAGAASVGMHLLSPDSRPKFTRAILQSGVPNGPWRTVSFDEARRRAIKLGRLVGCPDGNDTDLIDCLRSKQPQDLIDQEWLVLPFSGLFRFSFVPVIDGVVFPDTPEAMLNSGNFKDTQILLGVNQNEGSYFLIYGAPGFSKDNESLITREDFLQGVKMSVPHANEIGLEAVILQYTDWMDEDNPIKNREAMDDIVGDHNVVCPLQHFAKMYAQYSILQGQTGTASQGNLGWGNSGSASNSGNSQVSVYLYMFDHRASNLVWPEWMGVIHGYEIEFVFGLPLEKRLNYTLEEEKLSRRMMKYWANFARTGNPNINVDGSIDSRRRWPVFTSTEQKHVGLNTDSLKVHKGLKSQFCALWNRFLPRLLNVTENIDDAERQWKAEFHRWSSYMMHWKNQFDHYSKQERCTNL
As to the kind of experiment: biochemical.

Another data set in a line: in vivo. Conditions: rat, po.
The target of data set [3] is T3, butyrylcholinesterase from human serum (Homo sapiens, UniProt P06276).
T3 construct: purchased Sigma Chemical; host or cells: human serum
T3 sequence (P06276 29-602): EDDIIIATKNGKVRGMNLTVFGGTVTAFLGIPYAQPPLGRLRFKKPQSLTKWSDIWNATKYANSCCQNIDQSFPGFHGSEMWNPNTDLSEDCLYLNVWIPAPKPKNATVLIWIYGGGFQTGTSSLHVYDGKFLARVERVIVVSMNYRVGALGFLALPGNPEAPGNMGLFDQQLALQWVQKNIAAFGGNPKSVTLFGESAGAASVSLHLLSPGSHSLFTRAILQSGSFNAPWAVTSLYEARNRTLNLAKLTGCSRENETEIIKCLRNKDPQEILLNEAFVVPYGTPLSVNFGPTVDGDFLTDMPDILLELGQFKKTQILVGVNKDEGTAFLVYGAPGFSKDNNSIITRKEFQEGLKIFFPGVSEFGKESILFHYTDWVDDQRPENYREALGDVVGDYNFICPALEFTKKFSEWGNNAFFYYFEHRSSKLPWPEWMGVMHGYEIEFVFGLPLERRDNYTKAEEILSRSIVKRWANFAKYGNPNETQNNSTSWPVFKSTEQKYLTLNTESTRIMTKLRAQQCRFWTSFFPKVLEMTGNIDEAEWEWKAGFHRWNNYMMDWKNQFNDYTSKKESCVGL
As to the kind of experiment: Inhibition of butyrylcholinesterase from human serum (Ellman colorimetric method). In kind it is biochemical.

[4] abbreviates: Cholinesterase Inhibition IC50, AChE hRBC, contact time 10'.
The mark [5] stands for this setting: Cholinesterase Inhibition IC50, AChE hRBC, contact time 30'.
Setting [6] is: Cholinesterase Inhibition IC50, AChE hRBC, contact time 60'.
[7] abbreviates: Cholinesterase Inhibition IC50, AChE E.eel, contact time 10'.
The mark [8] stands for this setting: Cholinesterase Inhibition IC50, AChE E.eel, contact time 30'.
[9] abbreviates: contact time 10', read-out: Cholinesterase Inhibition IC50, AChE hRBC.

Each structure is given as a SMILES string. Where two headings read alike, the source gives them in different places.

T1 sequence (P22303 32-617 isoform P22303-2 limits assumed): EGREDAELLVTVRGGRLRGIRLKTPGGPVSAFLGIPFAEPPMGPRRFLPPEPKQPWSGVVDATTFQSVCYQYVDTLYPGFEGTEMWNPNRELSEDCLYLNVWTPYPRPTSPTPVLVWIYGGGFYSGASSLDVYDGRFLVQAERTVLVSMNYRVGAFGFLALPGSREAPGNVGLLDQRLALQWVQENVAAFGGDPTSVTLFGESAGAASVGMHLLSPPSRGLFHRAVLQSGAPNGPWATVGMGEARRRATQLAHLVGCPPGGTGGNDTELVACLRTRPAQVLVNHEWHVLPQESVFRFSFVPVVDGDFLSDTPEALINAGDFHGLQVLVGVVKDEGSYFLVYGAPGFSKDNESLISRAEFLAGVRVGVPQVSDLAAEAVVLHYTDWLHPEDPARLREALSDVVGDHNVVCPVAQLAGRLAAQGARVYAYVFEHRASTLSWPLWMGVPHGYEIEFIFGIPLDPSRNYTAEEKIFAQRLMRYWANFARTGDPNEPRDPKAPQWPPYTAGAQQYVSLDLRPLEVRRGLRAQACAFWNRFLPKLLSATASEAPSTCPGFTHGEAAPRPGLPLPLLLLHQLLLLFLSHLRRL

Take `CCN(CC)CCCCCCCCCCCCNC(=O)Oc1ccc2c(c1)[C@]1(C)CCN(C)[C@@H]1N2C` [MF 254]: the IC50 (as a rule, the concentration that inhibits the measured activity by half) in data set [1] (setting [4]) stood at 50 nM. Further, in data set [1], the “Activity against human red blood cells acetylcholinesterase (in words)” value (shortened to “Activity”) is recorded as “Particularly active”.
For `CN1CCN(CCCCCCCCCCNC(=O)Oc2ccc3c(c2)[C@]2(C)CCN(C)[C@@H]2N3C)CC1` [MF 255], in data set [1] (setting [4]), the midpoint of inhibition, the IC50, lay at 50 nM. Also, in data set [1], the “Activity” value is on record as “Particularly active”.
Turning to `CN1CCN(C(=O)CCCCCNC(=O)Oc2ccc3c(c2)[C@]2(C)CCN(C)[C@@H]2N3C)CC1` [MF 245], half-maximal inhibition in data set [1] (setting [4]) (IC50) required 5500 nM.
In turn, `CN1CC[C@@]2(C)c3cc(OC(=O)NCCCCCCCCCCCCN4CCCCC4)ccc3N(C)[C@@H]12` [MF 249] showed an IC50 in data set [1] (setting [4]) of 50 nM. Further, the “Activity” value in data set [1] was “Particularly active”.
As for `CCN(CC)CCCCCCCCNC(=O)Oc1ccc2c(c1)[C@]1(C)CCN(C)[C@@H]1N2C` [MF 237], the IC50 in data set [1] (setting [4]) worked out at 110 nM; in data set [1] (setting [5]) it was 70 nM; in data set [1] (setting [6]), 30 nM; in data set [2] (setting [7]), 340 nM; in data set [2] (setting [8]), 190 nM; in data set [2] (Cholinesterase Inhibition IC50, AChE E.eel, contact time 60'), 120 nM. In addition, the “Activity” value in data set [1] is “Particularly active”.
In turn, `CCCN(CCC)CCCCCCCCCCCCNC(=O)Oc1ccc2c(c1)[C@]1(C)CCN(C)[C@@H]1N2C` [MF 258] had an IC50 in data set [1] (setting [4]) of 1000 nM.
Consider `CCCN(CCC)CCCCCCCCNC(=O)Oc1ccc2c(c1)[C@]1(C)CCN(C)[C@@H]1N2C` [MF 256], for which the LD50 (in general, the dose at which mortality reaches 50%) in the data set “in vivo” was determined as 18.3 mg/kg. This compound yielded an IC50 in data set [1] (setting [4]) of 80 nM. Also, in data set [1], the “Activity” value was “Particularly active”.
In turn, `CC(=O)N1CCN(CCCCCCCCCCCCNC(=O)Oc2ccc3c(c2)[C@]2(C)CCN(C)[C@@H]2N3C)CC1` [MF 275] gave an IC50 in data set [1] (setting [4]) of 50 nM.
With `CC(=O)N1CCN(CCCCCCCCCCNC(=O)Oc2ccc3c(c2)[C@]2(C)CCN(C)[C@@H]2N3C)CC1` [MF 252], the IC50 in data set [1] (setting [4]) was 27 nM. Moreover, the “Activity” value in data set [1] is reported as “Particularly active”.
Take `CN1CC[C@@]2(C)c3cc(OC(=O)NCCCCCCCCCCN4CCCCC4)ccc3N(C)[C@@H]12` [MF 248]: in “in vivo”, the LD50 is 15.3 mg/kg. In data set [1] (setting [4]), inhibition was half-maximal at 19 nM (IC50). Further, in data set [1], the “Activity” value was “Particularly active”.
Consider `CN1CC[C@@]2(C)c3cc(OC(=O)NCCCN4CCOCC4)ccc3N(C)[C@@H]12` [MF 218, N-morpholinylpropylcarbamoyleseroline], for which the IC50 in data set [1] (setting [9]) came out at 3800 nM.
With `CN1CC[C@@]2(C)c3cc(OC(=O)NCCCCCCCCCCN4CCCC4)ccc3N(C)[C@@H]12` [MF 253], the IC50 in data set [1] (setting [4]) came out at 30 nM. For the same compound, the “Activity” value in data set [1] is recorded as “Particularly active”.
Consider `CN1CC[C@@]2(C)c3cc(OC(=O)NCCN4CCOCC4)ccc3N(C)[C@@H]12` [MF 214, N-morpholinylethylcarbamoyleseroline], for which the IC50 in data set [1] (setting [5]) amounted to 140 nM; in data set [1] (setting [6]), 110 nM; in data set [1] (setting [9]), 700 nM; in data set [3] it was 4100 nM.
For `CCCCN1CCN(CCCCCCCCNC(=O)Oc2ccc3c(c2)[C@]2(C)CCN(C)[C@@H]2N3C)CC1` [MF 273], in data set [1] (setting [4]), it took 30 nM to reach half-maximal inhibition (IC50). In addition, in data set [1], the “Activity” value was “Particularly active”.
On to `CN1CC[C@@]2(C)c3cc(OC(=O)NCCCCCCCC(=O)N4CCOCC4)ccc3N(C)[C@@H]12` [MF 269], for which half-maximal inhibition in data set [1] (setting [4]) (IC50) was put at 120 nM.
Regarding `C[C@@H]1CN(CCCCCCCCNC(=O)Oc2ccc3c(c2)[C@]2(C)CCN(C)[C@@H]2N3C)C[C@@H](C)O1` [MF 276, 8-(trans-2,6-dimethyl)morpholinyloctylcarbamoyl eseroline], the “Activity” value in data set [1] was “Particularly active”. Further, the IC50 in data set [1] (read-out: Cholinesterase Inhibition IC50, AChE hRBC, contact time 10') is 70 nM; in data set [3] (read-out: Cholinesterase Inhibition IC50, BuChE hserum, contact time 10'), 250 nM.
`CC(=O)N1CCN(CCCCCCCCNC(=O)Oc2ccc3c(c2)[C@]2(C)CCN(C)[C@@H]2N3C)CC1` [MF 240] gave an IC50 in data set [1] (setting [4]) of 240 nM.
`CN1CC[C@@]2(C)c3cc(OC(=O)NCCCCCCCCN4CCCCC4)ccc3N(C)[C@@H]12` [MF 241, N-piperidinyloctylcarbamoyleseroline] came in with an IC50 in data set [1] (setting [4]) of 100 nM. Moreover, the “Activity” value in data set [1] is listed as “Particularly active”.
`CN(CCCCCCCCN1CCOCC1)C(=O)Oc1ccc2c(c1)[C@]1(C)CCN(C)[C@@H]1N2C` [MF 243, N-(morpholinyloctyl),N-methyl carbamoyl eseroline] had an IC50 in data set [1] (setting [4]) of 7400 nM.
For `CN1CCN(CCCCCCCCNC(=O)Oc2ccc3c(c2)[C@]2(C)CCN(C)[C@@H]2N3C)CC1` [MF 230, N-(N-methylpiperazinyloctyl)carbamoyleseroline], the LD50 in the data set “in vivo” was 27.7 mg/kg. The half-inhibitory concentration (IC50) stood at 30 nM in data set [1] (setting [4]), 50 nM in data set [1] (setting [5]), 200 nM in data set [2] (setting [7]) and 80 nM in data set [2] (setting [8]). Besides, the “Activity” value in data set [1] was “Particularly active”.
Regarding `CN1CC[C@@]2(C)c3cc(OC(=O)NCCCCCCCCN4CCN(Cc5ccccc5)CC4)ccc3N(C)[C@@H]12` [MF 266], in data set [1] (setting [4]), it took 70 nM to reach half-maximal inhibition (IC50). Besides, the “Activity” value in data set [1] is reported as “Particularly active”.
The compound `CN1CC[C@@]2(C)c3cc(OC(=O)NCCCCCCCCN4CCC5(CC4)OCCO5)ccc3N(C)[C@@H]12` [MF 265] yielded an IC50 in data set [1] (setting [4]) of 80 nM. In addition, the “Activity” value in data set [1] is on record as “Particularly active”.
For the compound `CN1CC[C@@]2(C)c3cc(OC(=O)NCCCCCCCCN4CC=CC4)ccc3N(C)[C@@H]12` [MF 250], in data set [1] (setting [4]), the IC50 was 30 nM.
Turning to `COCCN(CCCCCCCCNC(=O)Oc1ccc2c(c1)[C@]1(C)CCN(C)[C@@H]1N2C)CCOC` [MF 271], the IC50 in data set [1] (setting [4]) is 50 nM. In addition, the “Activity” value in data set [1] is “Particularly active”.
`CCN(CC)CCCCCCCCCCNC(=O)Oc1ccc2c(c1)[C@]1(C)CCN(C)[C@@H]1N2C` [MF 247] gave an IC50 in data set [1] (setting [4]) of 17 nM. Further, in data set [1], the “Activity” value is given as “Particularly active”.
Consider `CN1CC[C@@]2(C)c3cc(OC(=O)NCCCCCCCCCCCN4CCOCC4)ccc3N(C)[C@@H]12` [MF 232], for which the IC50 in data set [1] (setting [9]) turned out to be 40 nM; in data set [2] (setting [7]) it was 70 nM.
In data set [1] (setting [4]), `CCN1CCN(CCCCCCCCNC(=O)Oc2ccc3c(c2)[C@]2(C)CCN(C)[C@@H]2N3C)CC1` [MF 262] showed an IC50 of 30 nM. For the same compound, in data set [1], the “Activity” value is “Particularly active”.
The like results for `CN1CC[C@@]2(C)c3cc(OC(=O)NCCCCCCCCN4CCCC4)ccc3N(C)[C@@H]12` [MF 251, N-pyrrolidinyloctylcarbamoyleseroline] were, in that order, 70 nM and “Particularly active”.
In the case of `CN1CC[C@@]2(C)c3cc(OC(=O)NCCCCCCCCCN4CCOCC4)ccc3N(C)[C@@H]12` [MF 233], in data set [1], the “Activity” value was “Particularly active”. Besides, the IC50 in data set [1] (setting [9]) was 60 nM; in data set [2] (read-out: Cholinesterase Inhibition IC50, AChE E.eel, contact time 10'), 140 nM.
`CN1CC[C@@]2(C)c3cc(OC(=O)NCCCCCCCCCCN4CCOCC4)ccc3N(C)[C@@H]12` [MF 231] returned an LD50 in “in vivo” of 40 mg/kg. The “Activity” value in data set [1] is listed as “Particularly active”. Further, the IC50 was 40 nM in data set [1] (setting [9]) and 60 nM in data set [2] (setting [7]).
As to `CCCN1CCN(CCCCCCCCNC(=O)Oc2ccc3c(c2)[C@]2(C)CCN(C)[C@@H]2N3C)CC1` [MF 261], in data set [1] (setting [4]), the IC50 was found to be 20 nM. In data set [1], the “Activity” value is listed as “Particularly active”.
On to `CN1CCN(CCCCCCCCCCCCNC(=O)Oc2ccc3c(c2)[C@]2(C)CCN(C)[C@@H]2N3C)CC1` [MF 229], for which the figures for the IC50 in data set [1] (setting [4]) and in data set [2] (setting [7]) were 60 nM and 40 nM, respectively. The “Activity” value in data set [1] was “Particularly active”.
Turning to `CN(CCCCCCCCNC(=O)Oc1ccc2c(c1)[C@]1(C)CCN(C)[C@@H]1N2C)c1ccccc1` [MF 263], inhibition in data set [1] (setting [4]) was half-maximal at 50 nM (IC50). The “Activity” value in data set [1] was “Particularly active”.
As for `CC(C)CN1CCN(CCCCCCCCNC(=O)Oc2ccc3c(c2)[C@]2(C)CCN(C)[C@@H]2N3C)CC1` [MF 270], 60 nM corresponded to half-maximal inhibition in data set [1] (setting [4]) (IC50).
`CCCN(CCC)CCCCCCCCCCNC(=O)Oc1ccc2c(c1)[C@]1(C)CCN(C)[C@@H]1N2C` [MF 257] came in with an IC50 in data set [1] (setting [4]) of 30 nM. Besides, the “Activity” value in data set [1] is recorded as “Particularly active”.
For `C[C@@H]1CN(CCCCCCCCNC(=O)Oc2ccc3c(c2)[C@]2(C)CCN(C)[C@@H]2N3C)C[C@H](C)O1` [MF 268, 8-(cis-2,6-dimethylmorpholinyl)octylcarbamoyl eseroline], the LD50 in the data set “in vivo” stood at 56 mg/kg. For the same compound, the IC50 in data set [1] (setting [4]) worked out at 70 nM; in data set [3], 180 nM. For the same compound, in data set [1], the “Activity” value is given as “Particularly active”.
Compound `CN1CC[C@@]2(C)c3cc(OC(=O)NCCCCCCCCN4CCSCC4)ccc3N(C)[C@@H]12` [MF 239] registered an LD50 in the data set “in vivo” of 23.8 mg/kg. In data set [1] (setting [4]), this compound yielded an IC50 of 50 nM. In addition, the “Activity” value in data set [1] is given as “Particularly active”.
The compound `CC(=O)N1CCN(CCNC(=O)Oc2ccc3c(c2)[C@]2(C)CCN(C)[C@@H]2N3C)CC1` [MF 246] yielded an IC50 in data set [1] (setting [4]) of 20000 nM.

Values taken from patent US5424451A, “Process for preparing aminoalkylcarbamic esters of eseroline” (priority 1992, dated 1995).
